Values quoted from earlier work, collected in US8735422B2, “Cationic pharmaceutically active ingredient containing composition, and methods for manufacturing and using” (Skinvisible Pharmaceuticals, Inc., priority 2009, dated 2014).
Read-outs that look alike come from different tables or passages of the source.

Key:
[1] = in vivo
[2] = Table 4, value used for the calculation

Row | Compound | pK1 (Table 1) | other results
1 | CC(=O)O [Acetic Acid] | 4.76 | 
2 | O=C(O)c1ccccc1 [Benzoic Acid] | 4.21 | 
3 | O=C(O)[C@H](O)[C@@H](O)[C@H](O)[C@H](O)CO [Gluconic Acid] | 3.86 | 
4 | Poly(vinylpyrrolidone/1-hexadecene) [PVPH] |  | dermal toxicity [1]: no demonstrable dermal toxicity
5 | O=C(O)CCCCCCCCCCC(=O)O [Dodecandioic] | 4.5 | pK2 (Table 1): 4.5
6 | CCCCCCCCCCCCCCCCCC(=O)O [Stearic Acid] | 7.0 | 
7 | CC(C)Cn1cnc2c(N)nc3ccccc3c21 [Imiquimod, reference compound] |  | pK [2]: 4.49
8 | CCCCCCCCCCCC(=O)O [Lauric Acid] | 5.3 | pK: 5.3; pK [2]: 5.30
9 | Poly(vinylpyrrolidone/1-eicosene) [PVPE] |  | dermal toxicity [1]: no demonstrable dermal toxicity
